Values quoted from earlier work in patent US20190177430A1, “Methods of Treating Cancers With Chemotherapy With Reduced Toxicity” (The Wistar Institute of Anatomy and Biology, priority 2016, published 2019).

Details: dosages of 250 mg/m^2

In the case of `COc1cccc2c1C(=O)c1c(O)c3c(c(O)c1C2=O)C[C@@](O)(C(=O)CO)C[C@@H]3O[C@H]1C[C@H](N)[C@H](O)[C@H](C)O1` [Doxorubicin, (7S,9S)-7-[(2R,4S,5S,6S)-4-amino-5-hydroxy-6-methyloxan-2-yl]oxy-6,9,11-trihydroxy-9-(2-hydroxyacetyl)-4-methoxy-8,10-dihydro-7H-tetracene-5,12-dione], the “Doxorubicin-induced cardiac dysfunction, share of treated patients” value is given as 9%.
